Measured values taken from patent US7262185B2, “Benzazepine derivative, process for producing the same, and use” (Takeda Chemical Industries Ltd., priority 2001, dated 2007).

How the values were obtained:
[1] = target: T1, human CCR5 chemokine receptor (Homo sapiens, UniProt P51681); assay: Inhibition of [125I]-RANTES binding to CCR5/CHO cells (CCR5 antagonistic activity); details: 40 min, test compound 1 μM, [125I]-RANTES as ligand, room temperature, read-out: Binding Inhibitory Ratio (%)
T1 construct: expressed in transfected cells
Description: Cloning of CCR5 gene from human spleen cDNA was conducted using the PCR method. Using spleen cDNA (0.5 ng) (TOYOBO CO., LTD, QUICK-Clone cDNA) as a template, PCR was performed in a DNA Thermal Cycler 480 (manufactured by Perkin Elmer) (reaction conditions: 30 cycles of 95° C. for 1 minute, 60° C. for 1 minute, and 75° C. for 5 minutes) by adding primer sets, SEQ. ID NO: 1 (sequence length: 34; sequence type: nucleic acid; chain number: single strand; topology: linear; kind of sequence: other nucleic acid synthetic. DNA) described in Experimental. Example (1) of WO 99/32100, and SEQ ID NO: 2 (sequence length: 34; sequence type: nucleic acid; chain number: single strand; topology: linear; kind of sequence: other nucleic acid synthetic. DNA) described in Experimental. Example (1) of WO 99/32100, (25 pmol, respectively), which were prepared referring to the nucleotide sequence of CCR5 gene, as reported by Samson et al. (Biochemistry 35 (11), 3362-3367 (1996)) and by using TaKaRa. EX Taq (Takara Shuzo). The resultant. PCR product was subjected to agarose gel electrophoresis to collect an approximately 1.0 kb. DNA fragment, which was subjected to an Original TA Cloning Kit (Funakoshi Co., Ltd.) to carry out cloning of CCR5 gene.
The plasmid obtained above was digested with restriction enzymes XbaI (Takara Shuzo Co., Ltd.) and BamHI (Takara Shuzo Co., Ltd.), and then subjected to agarose gel electrophoresis to collect DNA fragment of about 1.0 kb. The DNA fragment and plasmid pcDNA 3.1 (Funakoshi. Co., Ltd.) for expression in animal cells, which was previously digested with XbaI and BamHI, were mixed and ligated by DNA Ligation Kit Ver. 2 (Takara Shuzo Co., Ltd.). The resulting plasmid was subjected to transformation into. E. coli JM109 competent cells (Takara Shuzo Co., Ltd.) to obtain plasmid pCKR5.
CHO-K1 cells were cultured in a 750-ml tissue culture flask (Becton, Dickinson and Company.) using. Ham F12 medium (NIHON PHARMACEUTICAL CO., LTD.) containing 10% fetal bovine serum (Lifetech Oriental) and were collected using 0.5 g/L trypsin-0.2 g/L EDTA (Lifetech Oriental). The cells were washed with PBS (Lifetech Oriental), centrifuged (1000 rpm, 5 minutes), and suspended in PBS. The DNA was introduced into the cells using a Gene Pulser (Bio-Rad Laboratories, Inc.) under the following conditions. Namely, 8×10^6 cells and 10 μg of plasmid pCKR5 for expression of human CCR5 were placed in a cuvette having a 0.4-cm gap, and electroporation was carried out with a voltage 0.25 kV and 960 μF of capacitance. Then, the cells were transferred into Ham's. F12 medium containing 10% fetal bovine serum, and incubated for 24 hours. The cells were collected, centrifuged, and suspended in Ham' F12 medium containing 10% fetal bovine serum and Geneticin (Lifetech Oriental) at a concentration of 500 μg/ml. The suspension of cells was diluted to a concentration of 10^4 cells/ml, and was inoculated onto 96-well plate (Becton Dickinson), to obtain Geneticin-resistant strain.
Then, resulting. Geneticin-resistant strain were cultured on 96-well plate (Becton Dickinson), and CCR5-expressing cells were selected from the resistant cells. Namely, in an assay buffer, (Ham's F12 medium containing 0.5% BSA, and 20 mM HEPES (Wako Pure Chemical Ind., pH 7.2)) to which was added […][125I]-RANTES (Amersham) as a ligand, the cells were subjected to a binding reaction at room temperature for 40 minutes. Wells containing the cells were washed with ice-cooled PBS, and 50 μl/well of 1M NaOH was added and stirred. The cells to which the ligand was bound specifically, i.e., CCR5/CHO cells, were selected by measurement of radioactivity using a […].
The CCR5/CHO cells were inoculated onto 96-well microplate at a concentration of 5×10^4 cells/well, and were cultured for 24 hours. After removal of the medium by aspiration, to each well was added an assay buffer containing a test compound (1 μM), and [125I]/RANTES (Amersham) used as a ligand at a concentration of […]. […]

T1 sequence (P51681 whole entry): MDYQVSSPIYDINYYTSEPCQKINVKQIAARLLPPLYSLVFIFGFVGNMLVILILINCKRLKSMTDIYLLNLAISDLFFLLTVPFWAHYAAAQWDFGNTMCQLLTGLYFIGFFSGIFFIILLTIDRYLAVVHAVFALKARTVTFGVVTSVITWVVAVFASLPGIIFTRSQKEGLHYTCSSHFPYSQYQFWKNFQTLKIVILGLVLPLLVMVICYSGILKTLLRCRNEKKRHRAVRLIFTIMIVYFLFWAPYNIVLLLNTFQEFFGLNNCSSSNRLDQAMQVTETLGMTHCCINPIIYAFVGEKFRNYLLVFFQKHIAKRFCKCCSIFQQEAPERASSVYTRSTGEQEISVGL

SMILES | melting point [°C] | inhibition at 1 µM [1] [%]
CCCCOCCOc1ccc(-c2ccc3c(c2)C=C(C(=O)Nc2ccc(SCc4nccn4CCCC(N)=O)cc2)CCN3CC(C)C)cc1 [Compound 415, N-[4-[[[1-(4-amino-4-oxobutyl)-1H-imidazol-2-yl]methyl]thio]phenyl]-7-[4-(2-butoxyethoxy)phenyl]-1-isobutyl-2,3-dihydro-1H-1-benzazepine-4-carboxamide] | 142 to 143 | 98
CCCCOCCOc1ccc(-c2ccc3c(c2)C=C(C(=O)Nc2ccc([S+]([O-])Cc4nncn4CC)cc2)CCN3CC(C)C)cc1 (stereo not shown) [Compound 135, 7-[4-(2-butoxyethoxy)phenyl]-N-[4-(4-ethyl-4H-1,2,4-triazol-3-ylmethylsulfinyl)phenyl]-1-isobutyl-2,3-dihydro-1H-benzazepine-4-carboxamide] | 102 to 104 | 100
CCCCOCCOc1ccc(-c2ccc3c(c2)C=C(C(=O)Nc2ccc(CCCn4cnnc4)cc2)CCN3CC(C)C)cc1 [Compound 63, 7-[4-(2-butoxyethoxy)phenyl]-1-isobutyl-N-[4-[3-(4H-1,2,4-triazol-4-yl)propyl]phenyl]-2,3-dihydro-1H-1-benzazepine-4-carboxamide] | 165 to 167 | 96
CCCCOCCOc1ccc(-c2ccc3c(c2)C=C(C(=O)Nc2ccc([C@H](O)c4cccc[n+]4[O-])cc2)CCN3Cc2cnn(C)c2)cc1 [Compound 87, 7-[4-(2-butoxyethoxy)phenyl]-N-[4-[(S)-hydroxy(1-oxidopyridin-2-yl)methyl]phenyl]-1-(1-methylpyrazol-4-ylmethyl)-2,3-dihydro-1H-1-benzazepine-4-carboxamide] | 94 to 97 | 89
CCCCOCCOc1ccc(-c2ccc3c(c2)C=C(C(=O)Nc2ccc([S+]([O-])Cc4nccn4CCCC(=O)NC)cc2)CCN3CC(C)C)cc1 (stereo not shown) [Compound 424, 7-[4-(2-butoxyethoxy)phenyl]-N-[4-[[[1-[4-(methylamino)-4-oxobutyl]-1H-imidazol-2-yl]methyl]sulfinyl]phenyl]-1-isobutyl-2,3-dihydro-1H-1-benzazepine-4-carboxamide] | 159 to 161 | 96
